Measured values from patent US20240148821A1, “PHARMACEUTICAL USE OF CYCLIC PEPTIDE COMPOUND” (CHUGAI SEIYAKU KABUSHIKI KAISHA, priority 2021, published 2024).
Numbered stars: 1 amine (or outer) side, 2 acyl side, 3 side chain; on linkers, the order of the positions; unused ones are H or OH. Bridge positions count the residues as written; N and C are the ends. Square brackets hold non-standard residues; d marks the D form. Peptide text beside a SMILES is read from it. * marks the point of attachment. hPhe(3-Cl-4-CF3) = N[C@@H](CCc1ccc(C(F)(F)F)c(Cl)c1)C(=O)O; NMePhe(4-CF3) = CN[C@@H](Cc1ccc(C(F)(F)F)cc1)C(=O)O; hPhe(4-CF3) = N[C@@H](CCc1ccc(C(F)(F)F)cc1)C(=O)O; X37 = CC(C)(C)NC(=O)COC[C@H](CC(=O)[*:1])N[*:2]; NMePhe(4-Cl) = CN[C@@H](Cc1ccc(Cl)cc1)C(=O)O; NMePhe(4-Me) = CN[C@@H](Cc1ccc(C)cc1)C(=O)O; NMedβ3hAla = C[C@H](CC(=O)[*:2])N(C)[*:1]; NMeGly(cPent) = CN[C@H](C(=O)O)C1CCCC1; NMeCha = CN[C@@H](CC1CCCCC1)C(=O)O; cisHyp = O=C(O)[C@@H]1C[C@H](O)CN1; NEtLeu = CCN[C@@H](CC(C)C)C(=O)O; NMeChg = CN[C@H](C(=O)O)C1CCCCC1; NMeF = CN[C@@H](Cc1ccccc1)C(=O)O; dNMeF = CN[C@H](Cc1ccccc1)C(=O)O; NMeD = CN[C@@H](CC(=O)O)C(=O)O; NMeL = CN[C@@H](CC(C)C)C(=O)O; NMeV = CN[C@H](C(=O)O)C(C)C; d(β3hA) = C[C@@H](N)CC(=O)O; NMeS = CN[C@@H](CO)C(=O)O; Morpholide = C1CN(*)CCO1; NMeA = CN[C@@H](C)C(=O)O; Piperidide = C1CCN(*)CC1; Ac5c = NC1(C(=O)O)CCCC1; Aze = O=C(O)[C@@H]1CCN1; Cyclobutyl = C1CC(*)C1; Sar = CNCC(=O)O; Propyl = CCC*

Each compound was assayed against protein-protein interaction between Kras and SOS1 (biotin-tagged human Kras loaded with GDP, His-tagged human SOS1) (Homo sapiens (Human), UniProt P01116, G12D) (assay: Protein-protein interaction inhibition between Kras and SOS1 (KrasG12D-SOS PPI) using AlphaScreen). Details: AlphaScreen; biotin-tagged human Kras loaded with GDP, His-tagged human SOS1; read-out: KRAS G12D-SOS PPI IC50.
Assay type: biochemical

Row | SMILES | IC50 [nM]
1 | CC[C@H](C)[C@@H]1NC(=O)[C@H](C)N(C)C(=O)C[C@@H](C)NC(=O)[C@H](CC(C)C)N(C)C(=O)[C@H](Cc2ccccc2)N(C)C(=O)[C@@H]2C[C@H](O)CN2C(=O)[C@H](CCc2ccc(C(F)(F)F)cc2)NC(=O)CN(C)C(=O)[C@H](Cc2ccc(Cl)cc2)N(C)C(=O)CN(C)C(=O)CN(C)C1=O [Compound 1373] (cyclo(I[Sar][Sar][NMePhe(4-Cl)][Sar][hPhe(4-CF3)][cisHyp][NMeF][NMeL][d(β3hA)][NMeA])) | 7.7
2 | CC[C@H](C)[C@@H]1NC(=O)[C@H](C(C)C)N(C)C(=O)C[C@@H](COCC(=O)NC(C)(C)C)NC(=O)[C@H](CC(C)C)N(C)C(=O)C2(CCCC2)NC(=O)[C@H](CC(C)C)N(C)C(=O)[C@H](CCc2ccc(C(F)(F)F)cc2)NC(=O)CN(C)C(=O)[C@H](Cc2ccc(Cl)cc2)N(C)C(=O)CN(C)C(=O)CN(C)C1=O [Compound 759] ([NMeV]I[Sar][Sar][NMePhe(4-Cl)][Sar][hPhe(4-CF3)][NMeL][Ac5c][NMeL]; linker N-C via X37) | 160
3 | CC[C@H](C)[C@@H]1NC(=O)[C@H](C)N(C)C(=O)C[C@@H](C(=O)N2CCCCC2)N(C)C(=O)[C@H](C(C)C)N(C)C(=O)C2(CCCC2)NC(=O)[C@@H]2CCCN2C(=O)[C@H](CCc2ccc(C(F)(F)F)c(Cl)c2)NC(=O)[C@H]2CCCN2C(=O)[C@H](Cc2ccccc2)N(C)C(=O)[C@@H]2CCCN2C(=O)CN(C)C1=O [Compound 1839] ([NMeA]I[Sar]P[NMeF][dP][hPhe(3-Cl-4-CF3)]P[Ac5c][NMeV][NMeD]-Piperidide; lactam N-11) | 55
4 | CC[C@H](C)[C@@H]1NC(=O)[C@H](CC(C)C)N(CC)C(=O)C[C@@H](C(=O)N2CCOCC2)N(C)C(=O)[C@H](C2CCCC2)N(C)C(=O)C2(CCCC2)NC(=O)[C@@H]2CCCN2C(=O)[C@H](CCc2ccc(C(F)(F)F)c(Cl)c2)NC(=O)CN(C)C(=O)[C@H](CC2CCCCC2)N(C)C(=O)[C@@H]2CCN2C(=O)[C@H](C)NC1=O [Compound 1266] ([NEtLeu]IA[Aze][NMeCha][Sar][hPhe(3-Cl-4-CF3)]P[Ac5c][NMeGly(cPent)][NMeD]-Morpholide; lactam N-11) | 1.2
5 | CC[C@H](C)[C@@H]1NC(=O)[C@H](CC(C)C)N(C)C(=O)C[C@@H](C)NC(=O)[C@H](C2CCCC2)N(C)C(=O)C2(CCCC2)NC(=O)[C@@H]2CCCN2C(=O)[C@H](CCc2ccc(C(F)(F)F)c(Cl)c2)NC(=O)CN(C)C(=O)[C@H](Cc2ccc(C)cc2)N(C)C(=O)[C@@H]2CCN2C(=O)[C@H](C)NC1=O [Compound 1331] (cyclo(A[Aze][NMePhe(4-Me)][Sar][hPhe(3-Cl-4-CF3)]P[Ac5c][NMeGly(cPent)][d(β3hA)][NMeL]I)) | 1.1
6 | CCCOC[C@H]1C(=O)N[C@@H]([C@@H](C)CC)C(=O)N(C)[C@@H](C)C(=O)N2CC[C@H]2C(=O)N(C)[C@@H](CC2CCCCC2)C(=O)N(C)CC(=O)N[C@@H](CCc2ccc(C(F)(F)F)c(Cl)c2)C(=O)N2CCC[C@H]2C(=O)NC2(CCCC2)C(=O)N(C)[C@@H](C(C)C)C(=O)N(C)[C@H](C(=O)N2CCCCC2)CC(=O)N1C [Compound 1763] ([NMeS](Propyl)I[NMeA][Aze][NMeCha][Sar][hPhe(3-Cl-4-CF3)]P[Ac5c][NMeV][NMeD]-Piperidide; lactam N-11) | 4.5
7 | CC[C@H](C)[C@@H]1NC(=O)[C@H](CC(C)C)N(C)C(=O)C[C@@H](C(=O)N2CCCCC2)N(C)C(=O)[C@H](C2CCCC2)N(C)C(=O)C2(CCCC2)NC(=O)[C@@H](Cc2ccccc2)N(C)C(=O)[C@H](CCc2ccc(C(F)(F)F)c(Cl)c2)NC(=O)CN(C)C(=O)[C@H](CC2CCCCC2)N(C)C(=O)CN(C)C(=O)CN(C)C1=O [Compound 1446] ([NMeL]I[Sar][Sar][NMeCha][Sar][hPhe(3-Cl-4-CF3)][dNMeF][Ac5c][NMeGly(cPent)][NMeD]-Piperidide; lactam N-11) | 150
8 | CC[C@H](C)[C@@H]1NC(=O)[C@H](COC2CCC2)N(C)C(=O)C[C@@H](C(=O)N2CCCCC2)N(C)C(=O)[C@H](C(C)C)N(C)C(=O)C2(CCCC2)NC(=O)[C@@H]2CCCN2C(=O)[C@H](CCc2ccc(C(F)(F)F)c(Cl)c2)NC(=O)CN(C)C(=O)[C@H](CC2CCCCC2)N(C)C(=O)[C@@H]2CCN2C(=O)[C@H](C)N(C)C1=O [Compound 755] ([NMeS](Cyclobutyl)I[NMeA][Aze][NMeCha][Sar][hPhe(3-Cl-4-CF3)]P[Ac5c][NMeV][NMeD]-Piperidide; lactam N-11) | 5.6
9 | CC[C@H](C)[C@@H]1NC(=O)[C@H](CC(C)C)N(C)C(=O)C[C@@H](C)N(C)C(=O)[C@H](C2CCCCC2)N(C)C(=O)C2(CCCC2)NC(=O)[C@@H]2CCCN2C(=O)[C@H](CCc2ccc(C(F)(F)F)c(Cl)c2)NC(=O)CN(C)C(=O)[C@H](Cc2ccc(C(F)(F)F)cc2)N(C)C(=O)[C@@H]2CCN2C(=O)[C@H](C)N(C)C1=O [Compound 348] (cyclo([Ac5c][NMeChg][NMedβ3hAla][NMeL]I[NMeA][Aze][NMePhe(4-CF3)][Sar][hPhe(3-Cl-4-CF3)]P)) | 6
